Read-outs that look alike come from different tables or passages of the source.
Experiments:
[1] = molecular target: T1, PI3Kβ (Homo sapiens, UniProt P42338); assay: Enzyme binding assay (KINOMEscan, DiscoveRx); details: PIK3Cβ_h, read-out: Kd PIK3Cβ_h
T1 construct: purchased DiscoveRx Corporation, San Diego (contract service, KINOMEscan)
Outline: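 Compounds are profiled for binding to the kinase using KINOMEscan. The affinity is then reported as an inhibitor Kd in nanomolar units.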

[2] = test system: Akt phosphorylated at Thr308 in PC-3 cells; assay: Cellular assay: phosphorylation of Akt at Thr308 in PC-3 cells (MSD ELISA); type: cell-based; details: PC-3 cells, 60 min compound incubation, MSD ELISA, read-out: IC50 pAkt_Thr308
Outline: (§1)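 After lysis of treated cells (60 min, 37° C, 0.3% DMSO), phospho-Akt levels were measured by MSD electrochemiluminescence ELISA. Potency was derived from concentration-response curves fitted over five concentrations.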

[3] = test system: Akt phosphorylated at Ser473 in PC-3 cells; assay: Cellular assay: phosphorylation of Akt at Ser473 in PC-3 cells (MSD ELISA); type: cell-based; details: PC-3 cells, 60 min compound incubation, MSD ELISA, read-out: IC50 pAkt_S473
Outline: as §1

[4] = molecular target: T2, PI3Kδ (Homo sapiens, UniProt O00329); assay: Enzyme binding assay (KINOMEscan, DiscoveRx); details: PIK3Cδ_h
T2 construct: purchased DiscoveRx Corporation, San Diego (contract service, KINOMEscan)
T2 sequence (O00329 1-1044): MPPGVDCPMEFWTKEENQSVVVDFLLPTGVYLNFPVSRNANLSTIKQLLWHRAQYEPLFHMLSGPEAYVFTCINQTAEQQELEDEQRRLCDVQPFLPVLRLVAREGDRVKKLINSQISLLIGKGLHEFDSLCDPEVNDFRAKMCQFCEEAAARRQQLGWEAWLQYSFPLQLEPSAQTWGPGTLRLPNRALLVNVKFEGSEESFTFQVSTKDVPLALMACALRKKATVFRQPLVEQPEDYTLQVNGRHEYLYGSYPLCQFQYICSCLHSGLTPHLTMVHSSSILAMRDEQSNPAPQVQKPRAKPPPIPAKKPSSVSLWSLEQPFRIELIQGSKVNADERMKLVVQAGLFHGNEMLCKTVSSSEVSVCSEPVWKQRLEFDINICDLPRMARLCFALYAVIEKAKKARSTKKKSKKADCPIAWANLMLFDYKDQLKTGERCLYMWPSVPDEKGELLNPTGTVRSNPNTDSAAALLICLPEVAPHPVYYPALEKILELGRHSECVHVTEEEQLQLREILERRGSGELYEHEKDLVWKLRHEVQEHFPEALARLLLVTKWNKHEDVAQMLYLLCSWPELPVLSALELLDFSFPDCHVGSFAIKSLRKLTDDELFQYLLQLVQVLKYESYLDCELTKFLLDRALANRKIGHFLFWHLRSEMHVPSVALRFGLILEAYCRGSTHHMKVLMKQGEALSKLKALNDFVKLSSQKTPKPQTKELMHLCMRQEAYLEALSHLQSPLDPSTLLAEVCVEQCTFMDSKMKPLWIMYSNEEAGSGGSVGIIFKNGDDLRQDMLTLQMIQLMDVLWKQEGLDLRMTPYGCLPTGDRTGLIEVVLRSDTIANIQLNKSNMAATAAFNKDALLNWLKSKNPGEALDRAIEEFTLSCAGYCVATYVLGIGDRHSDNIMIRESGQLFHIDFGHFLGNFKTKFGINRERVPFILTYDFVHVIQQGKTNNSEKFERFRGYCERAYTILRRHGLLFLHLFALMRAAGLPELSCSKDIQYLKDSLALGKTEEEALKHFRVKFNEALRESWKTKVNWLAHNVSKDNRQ
Outline: (§2)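 Compounds were profiled by KINOMEscan to obtain kinase binding affinities.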

[5] = molecular target: T3, kinase enzymes (Homo sapiens, UniProt P42336); assay: Enzyme binding assay (KINOMEscan, DiscoveRx), further kinases of Table A; details: PIK3Cα_h
T3 construct: purchased DiscoveRx Corporation, San Diego (contract service, KINOMEscan)
T3 sequence (P42336 whole entry): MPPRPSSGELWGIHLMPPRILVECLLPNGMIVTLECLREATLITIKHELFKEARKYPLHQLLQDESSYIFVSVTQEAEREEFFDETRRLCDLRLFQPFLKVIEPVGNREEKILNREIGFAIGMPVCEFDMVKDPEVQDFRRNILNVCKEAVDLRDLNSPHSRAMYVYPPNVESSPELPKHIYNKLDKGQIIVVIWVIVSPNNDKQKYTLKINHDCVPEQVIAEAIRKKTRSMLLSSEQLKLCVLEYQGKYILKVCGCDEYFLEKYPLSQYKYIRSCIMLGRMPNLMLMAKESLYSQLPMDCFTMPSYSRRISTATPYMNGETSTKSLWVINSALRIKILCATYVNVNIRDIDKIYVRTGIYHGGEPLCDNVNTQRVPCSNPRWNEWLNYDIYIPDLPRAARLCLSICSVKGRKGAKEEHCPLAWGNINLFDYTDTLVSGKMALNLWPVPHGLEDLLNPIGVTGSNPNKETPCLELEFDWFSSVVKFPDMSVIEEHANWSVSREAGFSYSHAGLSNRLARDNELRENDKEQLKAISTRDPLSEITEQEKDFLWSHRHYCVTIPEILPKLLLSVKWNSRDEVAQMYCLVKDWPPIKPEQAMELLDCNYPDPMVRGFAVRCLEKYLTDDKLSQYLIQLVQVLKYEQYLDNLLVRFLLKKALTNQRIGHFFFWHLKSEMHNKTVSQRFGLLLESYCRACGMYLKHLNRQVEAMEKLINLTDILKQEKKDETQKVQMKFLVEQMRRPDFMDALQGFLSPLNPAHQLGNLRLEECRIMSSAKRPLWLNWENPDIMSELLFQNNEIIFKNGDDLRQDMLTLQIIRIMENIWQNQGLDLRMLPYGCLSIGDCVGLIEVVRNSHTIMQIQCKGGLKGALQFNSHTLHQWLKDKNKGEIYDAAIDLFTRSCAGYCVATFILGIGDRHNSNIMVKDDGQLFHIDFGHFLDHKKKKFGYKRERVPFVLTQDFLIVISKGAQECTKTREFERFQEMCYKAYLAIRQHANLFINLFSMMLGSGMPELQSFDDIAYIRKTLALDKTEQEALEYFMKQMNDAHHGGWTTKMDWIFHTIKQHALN
Outline: as §2

[6] = molecular target: T4, kinase enzymes (Homo sapiens, UniProt P48736); assay: as above; details: PIK3Cγ_h
T4 construct: purchased DiscoveRx Corporation, San Diego (contract service, KINOMEscan)
T4 sequence (P48736 whole entry): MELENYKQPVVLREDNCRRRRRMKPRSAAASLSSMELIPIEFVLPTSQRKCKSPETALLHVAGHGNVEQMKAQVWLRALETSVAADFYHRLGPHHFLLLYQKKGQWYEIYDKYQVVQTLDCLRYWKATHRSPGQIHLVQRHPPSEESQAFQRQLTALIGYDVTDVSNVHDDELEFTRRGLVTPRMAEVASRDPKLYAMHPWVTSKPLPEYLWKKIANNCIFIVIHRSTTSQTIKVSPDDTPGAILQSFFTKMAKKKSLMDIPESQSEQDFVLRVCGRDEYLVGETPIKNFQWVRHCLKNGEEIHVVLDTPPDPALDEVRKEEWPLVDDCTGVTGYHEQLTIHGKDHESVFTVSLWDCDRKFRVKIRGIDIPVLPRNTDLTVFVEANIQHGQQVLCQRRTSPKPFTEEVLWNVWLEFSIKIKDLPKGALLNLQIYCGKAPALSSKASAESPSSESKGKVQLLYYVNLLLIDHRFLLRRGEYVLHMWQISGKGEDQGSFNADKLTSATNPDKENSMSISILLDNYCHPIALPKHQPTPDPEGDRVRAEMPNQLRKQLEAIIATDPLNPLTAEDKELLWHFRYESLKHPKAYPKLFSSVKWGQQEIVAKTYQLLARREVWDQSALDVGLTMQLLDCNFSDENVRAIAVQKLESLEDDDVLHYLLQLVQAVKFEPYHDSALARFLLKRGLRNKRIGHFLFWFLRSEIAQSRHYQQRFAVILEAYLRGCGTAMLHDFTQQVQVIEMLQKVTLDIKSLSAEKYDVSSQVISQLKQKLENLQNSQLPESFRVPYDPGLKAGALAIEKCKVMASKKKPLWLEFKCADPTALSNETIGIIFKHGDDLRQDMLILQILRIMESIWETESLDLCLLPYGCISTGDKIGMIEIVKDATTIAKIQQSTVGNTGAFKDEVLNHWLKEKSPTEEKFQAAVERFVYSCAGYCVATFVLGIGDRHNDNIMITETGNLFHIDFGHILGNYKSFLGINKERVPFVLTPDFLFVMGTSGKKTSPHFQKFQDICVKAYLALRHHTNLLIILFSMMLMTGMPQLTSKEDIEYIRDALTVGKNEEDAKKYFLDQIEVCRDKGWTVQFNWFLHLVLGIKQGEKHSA
Outline: as §2

[7] = molecular target: T5, kinase enzymes (Homo sapiens, UniProt P42345); assay: as above; details: MTOR_h
T5 construct: purchased DiscoveRx Corporation, San Diego (contract service, KINOMEscan)
Outline: as §2

T1 sequence (P42338 whole entry): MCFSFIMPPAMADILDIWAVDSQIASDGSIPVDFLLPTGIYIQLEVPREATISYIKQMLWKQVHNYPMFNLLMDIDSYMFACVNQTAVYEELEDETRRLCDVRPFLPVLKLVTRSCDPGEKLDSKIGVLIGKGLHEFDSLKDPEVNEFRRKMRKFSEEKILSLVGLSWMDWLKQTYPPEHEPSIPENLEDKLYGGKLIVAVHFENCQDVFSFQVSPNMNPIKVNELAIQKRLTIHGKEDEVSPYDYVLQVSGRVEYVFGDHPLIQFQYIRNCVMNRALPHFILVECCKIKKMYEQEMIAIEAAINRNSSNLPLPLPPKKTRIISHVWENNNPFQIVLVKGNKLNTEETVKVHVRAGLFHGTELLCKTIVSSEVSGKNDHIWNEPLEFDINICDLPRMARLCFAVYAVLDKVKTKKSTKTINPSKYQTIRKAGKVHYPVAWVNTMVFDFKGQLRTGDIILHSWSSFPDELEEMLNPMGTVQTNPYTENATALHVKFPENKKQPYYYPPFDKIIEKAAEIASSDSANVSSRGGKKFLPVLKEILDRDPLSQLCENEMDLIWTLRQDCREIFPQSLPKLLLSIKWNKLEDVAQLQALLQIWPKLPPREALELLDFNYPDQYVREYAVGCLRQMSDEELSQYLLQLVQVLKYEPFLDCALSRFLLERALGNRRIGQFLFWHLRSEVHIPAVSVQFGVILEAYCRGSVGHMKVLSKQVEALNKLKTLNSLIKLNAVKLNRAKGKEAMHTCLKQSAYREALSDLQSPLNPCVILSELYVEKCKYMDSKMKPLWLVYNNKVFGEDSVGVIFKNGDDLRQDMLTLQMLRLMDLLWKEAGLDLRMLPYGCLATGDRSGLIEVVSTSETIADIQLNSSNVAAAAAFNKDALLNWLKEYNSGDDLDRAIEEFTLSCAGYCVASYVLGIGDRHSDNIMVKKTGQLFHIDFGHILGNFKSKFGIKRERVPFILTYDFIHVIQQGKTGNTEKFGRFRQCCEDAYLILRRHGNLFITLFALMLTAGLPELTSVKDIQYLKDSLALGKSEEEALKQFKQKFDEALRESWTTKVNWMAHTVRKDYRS

Row | SMILES | Kd [1] [nM] | IC50 [2] [nM] | melting point [°C] | IC50 [3] [nM] | Kd [4] [nM] | Kd [5] [nM] | Kd [6] [nM] | Kd [7] [nM] | IC50 ([2]; Homo sapiens, PC-3, 1 h) [nM] | IC50 ([3]; Homo sapiens, PC-3, 1 h) [nM]
1 | CC(Nc1cc(F)cc(F)c1)c1cc(CN2CCn3nccc3C2)cc2ncc(N3CCOCC3)nc12 (single isomer, unassigned) [Compound 210] | 12 | 151 | 80 | 245 | 1020 | 3160 | > 30200 | > 30200 |  | 
2 | NC1CCN(C(=O)c2cc(C3CCCN3c3cc(F)cc(F)c3)c3nc(N4CCOCC4)cnc3c2)CC1 (centres unmarked) [Compound 75] | 0.1 |  | 80 |  | 2 | 30 | 4 | > 30200 | 1 | 2
3 | CC(Nc1cc(F)cc(F)c1)c1cc(CN2CCn3nccc3C2)cc2ncc(N3CCOCC3)nc12 (single isomer, unassigned) [Compound 222] | 759 | > 513 | 163 | > 513 | > 30200 | > 30200 | > 30200 | > 30200 |  | 
4 | CN(C)C(=O)c1cc(C2CCCN2c2ccccc2)c2nc(N3CCOCC3)cnc2c1 (centres unmarked) [Compound 27] | 1 |  | 80 |  | 58 | 269 | 1620 | > 30200 | 14 | 22
5 | CN[C@H]1CCN(C(=O)c2cc(C(C)Nc3ccc(F)c(F)c3)c3nc(N4CCOCC4)cnc3c2)C1 (mixture of isomers) [Compound 365] | 1 |  | 80 |  | 117 | 2090 | 2880 | > 30200 | 13 | 20
6 | CCN1CCN(C(=O)c2cc(C3CCCN3c3cc(F)cc(F)c3)c3nc(N4CCOCC4)cnc3c2)CC1 (centres unmarked) [Compound 142] | 0.5 |  | 80 |  | 59 | 209 | 741 | > 30200 | 7 | 10
7 | CC(Oc1cc(F)cc(F)c1)c1cc(-c2cnc[nH]2)cc2ncc(N3CCOCC3)nc12 (single isomer, unassigned) [Compound 22] | 5620 | > 513 | 183 | > 513 | 18600 | 15100 | > 30200 | 21900 |  | 
8 | O=C(c1cc(C2CCCN2c2cc(F)cc(F)c2)c2nc(N3CCOCC3)cnc2c1)N1CCC1 (single isomer, unassigned) [Compound 33] | 1 | 4 | 280 | 3 | 47 | 58 | 389 | > 30200 |  | 
9 | CN(C)C(=O)c1cc(NCc2cc(F)cc(F)c2)c2nc(N3CCOCC3)cnc2c1 [Compound 278] | 8 |  | 158 |  | 1740 | 2090 | 15800 | 19500 | 178 | 295
10 | COCCN(C)Cc1cc(C2CCCN2c2cc(F)cc(F)c2)c2nc(N3CCOCC3)cnc2c1 (centres unmarked) [Compound 112] | 1 |  | 80 |  | 204 | 955 | 2400 | > 30200 | ~62 | 174
11 | COCCNCc1cc(C2CCCN2c2cc(F)cc(F)c2)c2nc(N3CCOCC3)cnc2c1 (centres unmarked) [Compound 103] | 3 |  | 80 |  | 1000 | 1130 | 3000 | 24500 | 28 | 65
12 | CC(Nc1ccc(F)c(F)c1)c1cc(C(=O)N2CCN3CCC[C@H]3C2)cc2ncc(N3CCOCC3)nc12 (some centres unmarked) [Compound 287] | 13 |  | 80 |  | 977 | 2690 | 26300 | > 30200 | 48 | 151
13 | CC(Nc1cc(F)cc(F)c1)c1cc(CN2CCOCC23COC3)cc2ncc(N3CCOCC3)nc12 (single isomer, unassigned) [Compound 192] | 9120 | > 513 | 229 | > 513 | > 30200 | > 30200 | > 30200 | > 30200 |  | 
14 | CN(C)CCNC(=O)c1cc(CNc2cc(F)cc(F)c2)c2nc(N3CCOCC3)cnc2c1 [Compound 394] | 0.2 |  | 161 |  | 776 | 3240 | 12600 | 23400 | 18 | ~26.3
15 | CC(Nc1ccccc1)c1cc(C(=O)N(C)C)cc2ncc(N3CCOCC3)nc12 (centres unmarked) [Compound 150] | 3 |  | 110 |  | 501 | 2880 | 3720 | > 30200 | 91 | 138
16 | CC(Nc1cc(Cl)cc(Cl)c1)c1cc(C(=O)N2CCOCC2)cc2ncc(N3CCOCC3)nc12 (centres unmarked) [Compound 133] | 3 |  | 80 |  | 263 | 5750 | 26300 | > 30200 | 32 | 59

Continued, values first:

Row | Kd [1] [nM] | IC50 [2] [nM] | melting point [°C] | IC50 [3] [nM] | Kd [4] [nM] | Kd [5] [nM] | Kd [6] [nM] | Kd [7] [nM] | IC50 ([2]; Homo sapiens, PC-3, 1 h) [nM] | IC50 ([3]; Homo sapiens, PC-3, 1 h) [nM] | SMILES
17 | 19 | 219 | 136 |  | 1070 | 5370 | 12900 | 26900 |  | 339 | CC(Oc1cccc(F)c1)c1cc(C(=O)NCCO)cc2ncc(N3CCOCC3)nc12 (single isomer, unassigned) [Compound 334a]
18 | 3 | 68 | 107 | 178 | 955 | 2510 | 9550 | 30900 |  |  | CC(Nc1ccc(F)c(F)c1)c1cc(C(=O)NC[C@@H](C)O)cc2ncc(N3CCOCC3)nc12 (single isomer, unassigned) [Compound 346a]
19 | 98 | > 513 | 130 | > 513 | 5750 | 13500 | 21900 | > 30200 |  |  | CC(Nc1ccc(F)c(F)c1)c1cc(C(=O)N[C@H]2CCNC2)cc2ncc(N3CCOCC3)nc12 (single isomer, unassigned) [Compound 374b]
20 | 2240 | > 20.4 | 86 |  | > 30200 | > 30200 | > 30200 | > 30200 |  | 195 | CNCCOCCN(C)C(=O)c1cc(C(C)Nc2cc(F)c(F)c(F)c2)c2nc(N3CCOCC3)cnc2c1 (single isomer, unassigned) [Compound 315a]
21 | 1 |  | 180 |  | 129 | 170 | 562 | 1290 | > 513 | > 513 | CC(Nc1cc(F)cc(F)c1)c1cc(C(=O)O)cc2ncc(N3CCOCC3)nc12 (single isomer, unassigned) [Compound 83b]
22 | 20 | 251 | 107 | > 513 | 5010 | 12600 | 11000 | > 30200 |  |  | CN[C@@H]1CCN(C(=O)c2cc(C(C)Nc3ccc(F)c(F)c3)c3nc(N4CCOCC4)cnc3c2)C1 (single isomer, unassigned) [Compound 371b]
